In EP0318620A1, “Herbicidal sulfonamides” (E.I. DU PONT DE NEMOURS AND COMPANY, priority 1987, dated 1989):

Experiments:
[1] = system: barnyardgrass; test: Test B pan test in Sassafras sandy loam soil, pre- and postemergence; assay type: in vivo, Echinochloa crusgalli; conditions: scale 0 to 100
Description: (§1) Three round pans (25 cm diameter by 12.5 cm deep) were filled with Sassafras sandy loam soil. One pan was planted with nutsedge (Cyperus rotundus) tubers, crabgrass (Digitaria sanguinalis), sicklepod (Cassia obtusifolia), jimsonweed (Datura stramonium), velvetleaf (Abutilon theophrasti), lambsquarters (Chenopodim album), rice (Oryza sativa) and teaweed (Sida spinosa). The second pot was planted with green foxtail (Setaria viridis), cocklebur (Xantium pensyivanicum), morningglory (lpomoea hederacea), cotton (Gossypium hirsutum), johnsongrass (Sorghum halepense), barnyardgrass (Echinochloa crusgalli), corn (Zea mays), soybean (Glycine max) and giant foxtail (Setaria faberi). The third pot was planted with wheat (Triticum aestivum), barley (Hordeum vulgare), wild buckwheat (Polgonum convolvulus L.), cheatgrass (Bromus secalinus L.), sugarbeet (Beta vulgaris), wild oats (Avena fatua), viola (Viola arvensis), blackgrass (Alopecurus myosuroides), and rape (Brassica napus). The plants were grown for approximately fourteen days, then sprayed postemergence with the chemicals dissolved in a non-phytotoxic solvent.
(§2) Three round pans (25 cm diameter by 12.5 cm deep) were filled with Sassafras sandy loam soil. One pan was planted with nutsedge tubers, crabgrass, sicklepod, jimsonweed, velvetleaf, lambsquarters, rice and teaweed. The second pot was planted with green foxtail, cocklebur, morningglory, cottom, johnsongrass, . barnyardgrass, corn, soybean and giant foxtail. The third pot was planted with wheat, barley, wild buckwheat, cheatgrass, sugarbeet, wild oat, viola, blackgrass and rape. The three pans were sprayed preemer gence with the chemicals dissolved in a non-phytotoxic solvent.
(§3) Treated plants and controls were maintained in the greenhouse for 24 days, then all rated plants were compared to controls and visually rated for plant response.
(§4) A dash (-) response means no test.

[2] = system: crabgrass; test: as above; assay type: in vivo, Digitaria sanguinalis; conditions: scale 0 to 100
Description: as §1, §2, §3, §4

[3] = system: cotton; test: as above; assay type: in vivo, Gossypium hirsutum; conditions: scale 0 to 100
Description: as §1, §2, §3, §4

[4] = system: teaweed; test: as above; assay type: in vivo, Sida spinosa; conditions: scale 0 to 100
Description: as §1, §2, §3, §4

[5] = system: wild oats; test: as above; assay type: in vivo, Avena fatua; conditions: scale 0 to 100
Description: as §1, §2, §3, §4

[6] = system: johnsongrass; test: as above; assay type: in vivo, Sorghum halepense; conditions: scale 0 to 100
Description: as §1, §2, §3, §4

[7] = system: crabgrass; test: Test A greenhouse herbicide test, pre- and postemergence; assay type: in vivo, Digitaria spp.; conditions: PREEMERGENCE; RATE 0.01 KG/HA; rated after sixteen days
Description: (§5) Seeds of crabgrass (Digitaria spp.), barnyardgrass (Echinochloa crusgalli), cheatgrass (Bromus Secalinus), giant foxtail (Setaria faberii), wild oats (Avena fatua), velvetleaf (Abutilon theophrasti), morningglory (Ipomoea spp. , cocklebur (Xanthium pensylvanicum). sorghum, corn, barley, soybean, sugarbeet, cotton, rice, wheat and purple nutsedge (Cyperus rotundus) tubers were planted and treated preemergence with the test chemicals dissolved in a non-phytotoxic solvent. At the same time, these crop and weed species were treated with a soil/foliage application. At the time of treatment, the plants ranged in height from 2 to 18 cm. Treated plants and controls were maintained in a greenhouse for sixteen days, after which all species were compared to controls and visually rated for response to treatment. The ratings, summarized in Table A, are based on a numerical scale extending from 0 = no injury, to 10 = complete kill. The accompanying descriptive symbols have the following meanings: • B = burn; • C = chlorosis/necrosis; • D = defoliation; • E = emergence inhibition; • G = growth retardation; • H = formative effect; • U = unusual pigmentation; • X = axillary stimulation; • S = albinism; and • 6Y = abscised buds or flowers.

[8] = system: giant foxtail; test: Test B pan test in Sassafras sandy loam soil, pre- and postemergence; assay type: in vivo, Setaria faberi; conditions: scale 0 to 100
Description: as §1, §2, §3, §4

[9] = system: cheatgrass; test: Test A greenhouse herbicide test, pre- and postemergence; assay type: in vivo, Bromus Secalinus; conditions: rated after sixteen days
Description: as §5

[10] = system: giant foxtail; test: as above; assay type: in vivo, Setaria faberii; conditions: rated after sixteen days
Description: as §5

[11] = system: cotton; test: as above; assay type: in vivo; conditions: rated after sixteen days
Description: as §5

[12] = system: sorghum; test: as above; assay type: in vivo; conditions: POSTEMERGENCE; RATE 0.05 KG/HA; rated after sixteen days
Description: as §5

[13] = system: corn; test: as above; assay type: in vivo; conditions: rated after sixteen days
Description: as §5

[14] = system: soybean; test: as above; assay type: in vivo; conditions: rated after sixteen days
Description: as §5

[15] = system: rice; test: as above; assay type: in vivo; conditions: rated after sixteen days
Description: as §5

[16] = system: sugarbeet; test: as above; assay type: in vivo; conditions: POSTEMERGENCE, rated after sixteen days
Description: as §5

[17] = system: wild oats; test: as above; assay type: in vivo, Avena fatua; conditions: PREEMERGENCE; RATE 0.01 KG/HA; rated after sixteen days
Description: as §5

CCOC(=O)c1c(CC#N)cccc1S(=O)(=O)NC(=O)Nc1nc(OC)cc(OC)n1 [Compound 3, 2-(cyanomethyl)-6 [[(4,6-dimethoxypyrimidin-2-yl)-aminocarbonyl]aminosulfonyl]benzoic acid, ethyl ester]
8H: CHEATGRASS visual rating of response to treatment ([9]; PREEMERGENCE, RATE 0.05 KG/HA)
40: WILD OATS response rating ([5]; PREEMERGENCE, RATE 0016 G/HA)
80: BARNYARD GRASS response rating ([1]; PREEMERGENCE, RATE 0062 G/HA) | WILD OATS response rating ([5]; POSTEMERGENCE, RATE 0062 G/HA) | JOHNSONGRASS response rating ([6]; PREEMERGENCE, RATE 0062 G/HA)
3G: COTTON visual rating of response to treatment ([11]; PREEMERGENCE, RATE 0.01 KG/HA) | RICE visual rating of response to treatment ([15]; PREEMERGENCE, RATE 0.01 KG/HA) | WILD OATS visual rating of response to treatment [17]
100: BARNYARD GRASS response rating ([1]; POSTEMERGENCE, RATE 0004 G/HA) | BARNYARD GRASS response rating ([1]; POSTEMERGENCE, RATE 0016 G/HA) | BARNYARD GRASS response rating ([1]; POSTEMERGENCE, RATE 0062 G/HA) | COTTON response rating ([3]; POSTEMERGENCE, RATE 0004 G/HA) | COTTON response rating ([3]; POSTEMERGENCE, RATE 0016 G/HA) | COTTON response rating ([3]; POSTEMERGENCE, RATE 0062 G/HA) | TEAWEED response rating ([4]; POSTEMERGENCE, RATE 0062 G/HA) | JOHNSONGRASS response rating ([6]; POSTEMERGENCE, RATE 0016 G/HA) | JOHNSONGRASS response rating ([6]; POSTEMERGENCE, RATE 0062 G/HA) | GIANT FOXTAIL response rating ([8]; POSTEMERGENCE, RATE 0004 G/HA) | GIANT FOXTAIL response rating ([8]; POSTEMERGENCE, RATE 0016 G/HA) | GIANT FOXTAIL response rating ([8]; POSTEMERGENCE, RATE 0062 G/HA) | GIANT FOXTAIL response rating ([8]; PREEMERGENCE, RATE 0062 G/HA)
9H: CORN visual rating of response to treatment ([13]; PREEMERGENCE, RATE 0.05 KG/HA)
60: WILD OATS response rating ([5]; PREEMERGENCE, RATE 0062 G/HA) | JOHNSONGRASS response rating ([6]; POSTEMERGENCE, RATE 0004 G/HA) | GIANT FOXTAIL response rating ([8]; PREEMERGENCE, RATE 0016 G/HA)
50: BARNYARD GRASS response rating ([1]; PREEMERGENCE, RATE 0016 G/HA) | CRABGRASS response rating ([2]; POSTEMERGENCE, RATE 0016 G/HA) | TEAWEED response rating ([4]; POSTEMERGENCE, RATE 0004 G/HA) | WILD OATS response rating ([5]; POSTEMERGENCE, RATE 0016 G/HA)
5G: CHEATGRASS visual rating of response to treatment ([9]; PREEMERGENCE, RATE 0.01 KG/HA) | GIANT FOXTAIL visual rating of response to treatment ([10]; PREEMERGENCE, RATE 0.01 KG/HA) | SOYBEAN visual rating of response to treatment ([14]; PREEMERGENCE, RATE 0.01 KG/HA)
20: WILD OATS response rating ([5]; PREEMERGENCE, RATE 0004 G/HA)
4G: CRABGRASS visual rating of response to treatment [7]
70: BARNYARD GRASS response rating ([1]; POSTEMERGENCE, RATE 0001 G/HA) | CRABGRASS response rating ([2]; POSTEMERGENCE, RATE 0062 G/HA) | CRABGRASS response rating ([2]; PREEMERGENCE, RATE 0062 G/HA) | TEAWEED response rating ([4]; POSTEMERGENCE, RATE 0016 G/HA)
0: CRABGRASS response rating ([2]; POSTEMERGENCE, RATE 0001 G/HA) | CRABGRASS response rating ([2]; PREEMERGENCE, RATE 0004 G/HA) | COTTON response rating ([3]; PREEMERGENCE, RATE 0004 G/HA) | COTTON response rating ([3]; PREEMERGENCE, RATE 0016 G/HA) | TEAWEED response rating ([4]; PREEMERGENCE, RATE 0004 G/HA) | TEAWEED response rating ([4]; PREEMERGENCE, RATE 0016 G/HA) | TEAWEED response rating ([4]; PREEMERGENCE, RATE 0062 G/HA) | WILD OATS response rating ([5]; POSTEMERGENCE, RATE 0001 G/HA) | JOHNSONGRASS response rating ([6]; PREEMERGENCE, RATE 0004 G/HA)
6G: CHEATGRASS visual rating of response to treatment ([9]; POSTEMERGENCE, RATE 0.01 KG/HA)
10C: GIANT FOXTAIL visual rating of response to treatment ([10]; POSTEMERGENCE, RATE 0.05 KG/HA) | COTTON visual rating of response to treatment ([11]; POSTEMERGENCE, RATE 0.05 KG/HA) | CORN visual rating of response to treatment ([13]; POSTEMERGENCE, RATE 0.01 KG/HA) | SUGAR BEETS visual rating of response to treatment ([16]; RATE 0.01 KG/HA) | SUGAR BEETS visual rating of response to treatment ([16]; RATE 0.05 KG/HA)
9C: GIANT FOXTAIL visual rating of response to treatment ([10]; POSTEMERGENCE, RATE 0.01 KG/HA) | COTTON visual rating of response to treatment ([11]; POSTEMERGENCE, RATE 0.01 KG/HA) | SORGHUM visual rating of response to treatment [12] | SOYBEAN visual rating of response to treatment ([14]; POSTEMERGENCE, RATE 0.05 KG/HA) | RICE visual rating of response to treatment ([15]; POSTEMERGENCE, RATE 0.01 KG/HA) | RICE visual rating of response to treatment ([15]; POSTEMERGENCE, RATE 0.05 KG/HA)
30: BARNYARD GRASS response rating ([1]; PREEMERGENCE, RATE 0004 G/HA) | CRABGRASS response rating ([2]; POSTEMERGENCE, RATE 0004 G/HA) | CRABGRASS response rating ([2]; PREEMERGENCE, RATE 0016 G/HA) | COTTON response rating ([3]; POSTEMERGENCE, RATE 0001 G/HA) | COTTON response rating ([3]; PREEMERGENCE, RATE 0062 G/HA) | TEAWEED response rating ([4]; POSTEMERGENCE, RATE 0001 G/HA) | WILD OATS response rating ([5]; POSTEMERGENCE, RATE 0004 G/HA) | JOHNSONGRASS response rating ([6]; POSTEMERGENCE, RATE 0001 G/HA) | JOHNSONGRASS response rating ([6]; PREEMERGENCE, RATE 0016 G/HA) | GIANT FOXTAIL response rating ([8]; PREEMERGENCE, RATE 0004 G/HA)
90: GIANT FOXTAIL response rating ([8]; POSTEMERGENCE, RATE 0001 G/HA)
